The subject of data set [1] is Caco-2 cells. The experiment in a line: Uptake of CLA enantiomers in Caco-2 cells (LC-MS/MS). The format is in vitro ADME, Human. The note with it: for Intracellular concentration: Mean±SD, n = 3. Here is the method:
Caco-2 cells on 6-well plates (5 × 10^5 cells/well) were cultured in MEM containing 10% (v/v) FBS, 1% (v/v) NEAA, 100 units/mL penicillin and 100 μg/mL streptomycin sulphate at 37°C with 95% air and 5% CO2. When 80%–90% confluence was observed using an inverted light microscope, the cells were treated, respectively, with (−)CLA or (+)CLA at 1, 2.5 and 5 μmol/L for 2 h, washed 3 times with ice-cold PBS, collected into 1.5-mL Eppendorf tubes and centrifuged at 1500 rpm for 5 min. The precipitates were lysed with 80 μL of lysis buffer described above, frozen with liquid nitrogen, then thawed in water at 37°C three times, and then centrifuged at 10,000 rpm for 10 min (4°C). We used 10 μL of supernatant for the determination of protein concentration using Lowry’s method with bovine serum albumin as the standard, and the residue of the supernatants was subjected to extraction with ethyl acetate. The internal standard (IS) was 20 μL of glipizide (5.2 μg/mL). Extracted CLA enantiomer and glipizide were measured by a liquid chromatography-tandem mass spectrometr(LC-MS/MS).
The LC-MS/MS system consisted of an Alliance HT 2795 LC pump, an autosampler, and a Micromass Quattro Premier tandem quadrupole mass spectrometer with an electrospray ionization (ESI) source and Masslynx version 4.1 software (Waters Corp., Milford, MA, USA). The separation of CLA enantiomer and glipizide was performed using an XBridge C18 column (2.1 mm × 50 mm; i.d., 3.5 μm) (Waters Corp., Milford, MA, USA). The column temperature was maintained at 22°C, and the sample injection volume was 20 μL in the autosampler at 4°C. Mobile phases A and B were water with 0.1% (v/v) acetic acid and acetonitrile with 0.1% (v/v) acetic acid, respectively. Gradient elution was used at a flow rate of 0.25 mL/min for 8 min with 80% A and 20% B for 0–2 min, 5% A and 95% B for 2–4 min and 80% A and 20% B for 4.01–8 min. The LC system was connected to the mass spectrometer by an electrospray interface. The positive-ion ESI mode was selected, and the electrospray capillary voltage was 3.5 kV. Desolvation gas (ultrapure nitrogen) flow and cone gas flow were provided separately at rates of 600 L/h and 50 L/h, and source and desolvation temperatures were set at 110°C and 450°C, respectively. Argon was used as a collision gas in collision-induced dissociation of precursor ions at a flow rate of 0.27 mL/min. The data were acquired using multiple reaction monitoring mode and analysed by Masslynx software 4.1. The main parameters (retention time, ion channel, cone voltage and collision energy) were as follows: 2.66 min, 298.2–174.1, 25 V and 17 V for CLA enantiomer; and 2.97 min, 446.7–321.2, 25 V and 12 V for glipizide (IS), respectively. The lower limit of quantification of CLA enantiomer was 0.25 ng/mL. The mean relative recovery was 89%, and intra-assay and inter-assay coefficients of variation were <15%. The range of linearity was 0.25–200 ng/mL with r = 0.999. The concentrations of (−) or (+)CLA were quantified by standard curves according to their peak areas against the IS.

On the set-up of data set [2]: method as in PMID 12923804. As to conditions: rats; oral administration; n = 6; cited from earlier work.
Setting [3] is: dose of CLA enantiomer 1.0 μmol/L, 2 h.
[4] abbreviates: dose of CLA enantiomer 2.5 μmol/L, 2 h.
Where [5] appears, read: dose of CLA enantiomer 5.0 μmol/L, 2 h.

As for `CN1C(=O)[C@H](O)[C@@H](c2ccccc2)[C@H]1[C@H](O)c1ccccc1` [(+)CLA, 3R,4S,5S,6R-CLA], the values for the Intracellular concentration in data set [1] (setting [3]), in data set [1] (setting [4]) and in data set [1] (setting [5]) were 1.093 ± 0.233 ng/mL, 2.228 ± 0.065 ng/mL and 4.677 ± 1.029 ng/mL, respectively. Also, the “AUC0–12 h” value in data set [2] was 2446 ± 540 µg·min/mL.
Turning to `CN1C(=O)[C@@H](O)[C@H](c2ccccc2)[C@@H]1[C@@H](O)c1ccccc1` [(−)CLA, 3S, 4R, 5R, 6S-clausenamide], the “Ratio (-)/(+) of intracellular concentrations” value in data set [1] (1.0 μmol/L, 2 h) is given as 2.593; in data set [1] (2.5 μmol/L, 2 h) it was 2.167; in data set [1] (5.0 μmol/L, 2 h) it was 1.893; in data set [1] (in the presence of cyclosporine A, data not shown) it was 1.091. Further, the Intracellular concentration in data set [1] (setting [3]) came out at 2.834 ± 0.808 ng/mL; in data set [1] (setting [4]), 4.829 ± 0.603 ng/mL; in data set [1] (setting [5]) it was 8.853 ± 2.505 ng/mL. Also, the “AUC0–12 h” value in data set [2] was 1256 ± 308 µg·min/mL.
